Reference: article PMC9937538 (Journal of Medicinal Chemistry, 2022)
Structures can show the parent of a compound that is named as a salt.

Each compound was assayed against hCA II (Homo sapiens, UniProt P00918) (assay: CA inhibition, stopped-flow CO2 hydration assay). Conditions: read-out: Ki CA II; stopped-flow technique, mean from three assays.
Experimental: (§1) An applied photophysics stopped-flow instrument was used for assaying the CA-catalyzed CO2 hydration activity.[37]
(§2) The uncatalyzed rates were determined in the same manner and subtracted from the total observed rates. Stock solutions of the inhibitor (0.1 mM) were prepared in distilled–deionized water, and dilutions up to 0.01 nM were done thereafter with the assay buffer. Inhibitor and enzyme solutions were preincubated together for 15 min at room temperature prior to the assay to allow for the formation of the E–I complex. The inhibition constants were obtained by nonlinear least-squares methods using PRISM 3 and the Cheng–Prusoff equation, as reported earlier, and represent the mean from at least three different determinations. All CA isoforms were recombinant proteins obtained in-house, as reported earlier.[44]−[46]

| Compound | Ki [µM] |
| --- | --- |
| CN(C)S(=O)(=O)c1ccc(OCCNCC2COc3ccccc3O2)cc1 (stereo not drawn) [Compound 4, [((2-(4-Dimethylsulfonamidephenoxy)ethyl)amino)-methyl]-1,4-benzodioxane Hydrochloride] | > 10 |
| CS(=O)(=O)Nc1ccc(OCCNCC2COc3ccccc3O2)cc1 (stereo not drawn) [Compound 6, [((2-(4-Methylsulfonylamidephenoxy)ethyl)amino)-methyl]-1,4-benzodioxane Hydrochloride] | > 10 |

What follows are compounds tested against hCA VA (Homo sapiens, UniProt P35218) (assay: CA inhibition, stopped-flow CO2 hydration assay). Conditions: read-out: Ki CA VA; stopped-flow technique, mean from three assays.
Chain of hCA VA (P35218 39-305): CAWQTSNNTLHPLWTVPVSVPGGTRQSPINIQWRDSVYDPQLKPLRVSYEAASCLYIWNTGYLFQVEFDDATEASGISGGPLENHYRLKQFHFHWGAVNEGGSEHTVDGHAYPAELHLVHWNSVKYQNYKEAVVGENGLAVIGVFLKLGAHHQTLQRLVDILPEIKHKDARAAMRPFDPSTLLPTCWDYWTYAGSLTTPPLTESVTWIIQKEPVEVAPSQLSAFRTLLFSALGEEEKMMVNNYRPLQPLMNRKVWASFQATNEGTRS
Experimental: as §1, §2

| Compound | Ki [µM] |
| --- | --- |
| CN(C)S(=O)(=O)c1ccc(OCCNCC2COc3ccccc3O2)cc1 (stereo not drawn) [Compound 4, [((2-(4-Dimethylsulfonamidephenoxy)ethyl)amino)-methyl]-1,4-benzodioxane Hydrochloride] | > 10 |
| CS(=O)(=O)Nc1ccc(OCCNCC2COc3ccccc3O2)cc1 (stereo not drawn) [Compound 6, [((2-(4-Methylsulfonylamidephenoxy)ethyl)amino)-methyl]-1,4-benzodioxane Hydrochloride] | > 10 |

The compounds below were run against hCA I (Homo sapiens, UniProt P00915) (assay: CA inhibition, stopped-flow CO2 hydration assay). Conditions: read-out: Ki CA I; stopped-flow technique, mean from three assays.
Chain of hCA I (P00915 whole entry): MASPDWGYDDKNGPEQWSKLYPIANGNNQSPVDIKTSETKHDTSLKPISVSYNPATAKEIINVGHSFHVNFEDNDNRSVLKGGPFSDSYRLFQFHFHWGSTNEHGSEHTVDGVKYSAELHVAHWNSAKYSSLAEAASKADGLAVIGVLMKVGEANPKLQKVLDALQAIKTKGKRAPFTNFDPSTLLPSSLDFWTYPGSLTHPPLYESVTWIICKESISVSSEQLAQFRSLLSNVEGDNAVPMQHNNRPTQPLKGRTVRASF
Experimental: as §1, §2

| Compound | Ki [µM] |
| --- | --- |
| CN(C)S(=O)(=O)c1ccc(OCCNCC2COc3ccccc3O2)cc1 (stereo not drawn) [Compound 4, [((2-(4-Dimethylsulfonamidephenoxy)ethyl)amino)-methyl]-1,4-benzodioxane Hydrochloride] | > 10 |
| CS(=O)(=O)Nc1ccc(OCCNCC2COc3ccccc3O2)cc1 (stereo not drawn) [Compound 6, [((2-(4-Methylsulfonylamidephenoxy)ethyl)amino)-methyl]-1,4-benzodioxane Hydrochloride] | > 10 |

Each compound was assayed against hCA IV (Homo sapiens, UniProt P22748) (assay: CA inhibition, stopped-flow CO2 hydration assay). Conditions: read-out: Ki CA IV; stopped-flow technique, mean from three assays.
Chain of hCA IV (P22748 19-312): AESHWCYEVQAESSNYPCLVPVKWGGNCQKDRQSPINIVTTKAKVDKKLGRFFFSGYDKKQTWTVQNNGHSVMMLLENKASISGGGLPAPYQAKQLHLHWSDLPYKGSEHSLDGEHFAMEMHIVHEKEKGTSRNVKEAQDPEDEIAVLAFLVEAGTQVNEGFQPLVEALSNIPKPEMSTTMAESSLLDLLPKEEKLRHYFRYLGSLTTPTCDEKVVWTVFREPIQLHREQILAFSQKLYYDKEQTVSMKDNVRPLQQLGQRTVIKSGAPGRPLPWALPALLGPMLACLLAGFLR
Experimental: as §1, §2

| Compound | Ki [µM] |
| --- | --- |
| CN(C)S(=O)(=O)c1ccc(OCCNCC2COc3ccccc3O2)cc1 (stereo not drawn) [Compound 4, [((2-(4-Dimethylsulfonamidephenoxy)ethyl)amino)-methyl]-1,4-benzodioxane Hydrochloride] | > 10 |
| CS(=O)(=O)Nc1ccc(OCCNCC2COc3ccccc3O2)cc1 (stereo not drawn) [Compound 6, [((2-(4-Methylsulfonylamidephenoxy)ethyl)amino)-methyl]-1,4-benzodioxane Hydrochloride] | > 10 |

Each compound was assayed against hCA IX (Homo sapiens, UniProt Q16790) (assay: CA inhibition, stopped-flow CO2 hydration assay). Conditions: read-out: Ki CA IX; stopped-flow technique, mean from three assays.
Experimental: as §1, §2

| Compound | Ki [µM] |
| --- | --- |
| COc1cc(S(N)(=O)=O)cc(OC)c1OCCC(N)C1COc2ccccc2O1 (stereo not drawn) [Compound 14, 3,5-Dimethoxy-4-(3-amino-3-(1,4-benzodioxan)propoxy)benzenesulfonamide] | 0.955 |
| [N-]=[N+]=NC(CCOc1ccc(S(N)(=O)=O)cc1)C1COc2ccccc2O1 (stereo not drawn) [Compound 9, 4-(3-Azido-3-(1,4-benzodioxan)propoxy)benzenesulfonamide] | 0.328 |
| COc1cc(S(N)(=O)=O)ccc1OCCC(N=[N+]=[N-])C1COc2ccccc2O1 (stereo not drawn) [Compound 10, 3-Methoxy-4-(3-azido-3-(1,4-benzodioxan)propoxy)benzenesulfonamide] | 0.111 |
| COc1cc(S(N)(=O)=O)cc(OC)c1OCCC(N=[N+]=[N-])C1COc2ccccc2O1 (stereo not drawn) [Compound 11, 3,5-Dimethoxy-4-(3-azido-3-(1,4-benzodioxan)propoxy)benzenesulfonamide] | 0.745 |
| CN(C)S(=O)(=O)c1ccc(OCCNCC2COc3ccccc3O2)cc1 (stereo not drawn) [Compound 4, [((2-(4-Dimethylsulfonamidephenoxy)ethyl)amino)-methyl]-1,4-benzodioxane Hydrochloride] | > 10 |
| NS(=O)(=O)c1ccc(OCCNCC2COc3ccccc3O2)cc1 (stereo not drawn) [Compound 1, [((2-(4-Sulfonamidephenoxy)ethyl)amino)-methyl]-1,4-benzodioxane Hydrochloride] | 0.0203 |
| COc1cc(S(N)(=O)=O)ccc1OCCC(N)C1COc2ccccc2O1 (stereo not drawn) [Compound 13, 3-Methoxy-4-(3-amino-3-(1,4-benzodioxan)propoxy)benzenesulfonamide] | 0.0311 |
| CS(=O)(=O)Nc1ccc(OCCNCC2COc3ccccc3O2)cc1 (stereo not drawn) [Compound 6, [((2-(4-Methylsulfonylamidephenoxy)ethyl)amino)-methyl]-1,4-benzodioxane Hydrochloride] | > 10 |

What follows are compounds tested against T1, purified recombinant human DPP IV (Homo sapiens, UniProt P27487) (assay: In vitro DPP IV activity assay (fluorogenic Gly-Pro-AMC substrate)). Conditions: mean from three different assays.
T1 construct: purchased Cayman Chemicals (Michigan)
T1 sequence (P27487 whole entry): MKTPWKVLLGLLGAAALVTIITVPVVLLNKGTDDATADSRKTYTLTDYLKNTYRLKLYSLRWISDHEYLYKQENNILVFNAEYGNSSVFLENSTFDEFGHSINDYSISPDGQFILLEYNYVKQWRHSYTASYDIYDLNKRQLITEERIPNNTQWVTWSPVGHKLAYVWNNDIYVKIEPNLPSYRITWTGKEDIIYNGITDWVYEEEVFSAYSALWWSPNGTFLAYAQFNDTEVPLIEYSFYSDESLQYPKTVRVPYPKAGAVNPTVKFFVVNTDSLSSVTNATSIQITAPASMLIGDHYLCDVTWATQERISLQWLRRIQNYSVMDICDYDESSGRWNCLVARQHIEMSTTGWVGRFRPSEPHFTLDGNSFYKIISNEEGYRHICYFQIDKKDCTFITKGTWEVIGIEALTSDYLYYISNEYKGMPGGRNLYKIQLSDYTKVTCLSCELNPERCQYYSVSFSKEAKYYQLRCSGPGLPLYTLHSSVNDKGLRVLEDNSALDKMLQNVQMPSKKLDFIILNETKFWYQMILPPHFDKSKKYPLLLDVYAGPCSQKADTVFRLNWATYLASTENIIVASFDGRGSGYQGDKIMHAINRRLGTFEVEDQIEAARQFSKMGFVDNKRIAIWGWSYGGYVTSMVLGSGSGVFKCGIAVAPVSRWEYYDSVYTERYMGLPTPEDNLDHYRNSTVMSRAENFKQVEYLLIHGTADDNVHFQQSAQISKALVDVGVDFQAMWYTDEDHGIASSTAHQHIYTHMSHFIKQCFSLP
Type: biochemical
Experimental: The DPP IV inhibition activities of the entire sets of compounds were carried out on purified recombinant human DPP IV using conditions previously optimized.[35]
Four independent in vitro experiments were carried out, and each of those was performed in triplicate in a white half-volume 96-well solid plate. […] Afterward, the samples were mixed and 50 μL was transferred to each plate well. Each reaction was started by adding 50 μL of the substrate solution (200 μM H-Gly-Pro-7-amido-4-methylcoumarin (AMC)) to each well and incubated at 37 °C for 30 min. […] The DPP IV enzyme and the substrate solution were provided by Cayman Chemicals (Michigan).

| Compound | IC50 [µM] |
| --- | --- |
| COc1cc(S(N)(=O)=O)cc(OC)c1OCCC(N)C1COc2ccccc2O1 (stereo not drawn) [Compound 14, 3,5-Dimethoxy-4-(3-amino-3-(1,4-benzodioxan)propoxy)benzenesulfonamide] | 0.0283 ± 0.0035 |
| [N-]=[N+]=NC(CCOc1ccc(S(N)(=O)=O)cc1)C1COc2ccccc2O1 (stereo not drawn) [Compound 9, 4-(3-Azido-3-(1,4-benzodioxan)propoxy)benzenesulfonamide] | 669 ± 23.5 |
| COc1cc(S(N)(=O)=O)cc(OC)c1OCCC(N=[N+]=[N-])C1COc2ccccc2O1 (stereo not drawn) [Compound 11, 3,5-Dimethoxy-4-(3-azido-3-(1,4-benzodioxan)propoxy)benzenesulfonamide] | 0.0332 ± 0.0058 |
| COc1cc(S(N)(=O)=O)ccc1OCCC(N)C1COc2ccccc2O1 (stereo not drawn) [Compound 13, 3-Methoxy-4-(3-amino-3-(1,4-benzodioxan)propoxy)benzenesulfonamide] | 57.4 ± 3.2 |

What follows are compounds tested against T2, human cloned α1a-AR (Homo sapiens, UniProt P35348) (assay: α1a-AR binding assay ([3H]prazosin displacement)). Conditions: human cloned α1a-AR expressed in HEK293 cells.
T2 construct: expressed in transfected cells
T2 sequence (P35348 1-466): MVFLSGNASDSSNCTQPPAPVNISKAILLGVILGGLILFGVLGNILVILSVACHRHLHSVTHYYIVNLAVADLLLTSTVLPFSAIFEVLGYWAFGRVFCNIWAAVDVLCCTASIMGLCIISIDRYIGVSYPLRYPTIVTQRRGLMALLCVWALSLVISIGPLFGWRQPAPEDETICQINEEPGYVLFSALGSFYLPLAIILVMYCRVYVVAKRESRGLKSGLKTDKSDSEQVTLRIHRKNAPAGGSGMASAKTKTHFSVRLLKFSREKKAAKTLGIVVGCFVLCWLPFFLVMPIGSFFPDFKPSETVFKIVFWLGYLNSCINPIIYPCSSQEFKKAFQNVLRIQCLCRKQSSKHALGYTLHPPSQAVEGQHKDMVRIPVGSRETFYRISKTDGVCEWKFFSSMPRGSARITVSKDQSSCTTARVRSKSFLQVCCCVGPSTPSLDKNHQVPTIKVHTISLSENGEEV
Excerpt: Since WB-4101 is a potent α1 antagonist, this adrenoreceptor subtype was chosen to assess the loss of adrenergic affinity.
Figure S3. […] Curves […]
from single experiments were fitted using the standard four parameter logistic equation and represent the mean ± S.E.M. of 4 observations, 2 experi-ments. X-axis: Log concentrations of competitive test compounds. Y-axis: normalized [3H]prazosin Bound/Total bound.
In the table are reported the affinity constants, expressed as pKi (-log Ki), of compounds 11, 12 and WB-4101 for human cloned α1a-AR expressed in HEK293 cells. The values represent the arithmetic mean ± S.E.M. of 4 observations, 2 experiments.
ND, not determinable; NA, not available.
Note: data generated from binding assays were analyzed using Prism 5.02 (GraphPad Software Inc., San Diego, CA) and were fitted to a parametric function to derive best estimates of the IC50 and slope factor (nH); IC50 values were then converted to binding constant Ki according to Cheng-Prus- […]
The details on the α1a-AR binding assay have been described before2.
(1 picture or pasted object on this page, not shown here)

| Compound | binding affinity toward α1a-AR (in words) |
| --- | --- |
| COc1cc(S(N)(=O)=O)cc(OC)c1OCCC(N=[N+]=[N-])C1COc2ccccc2O1 (stereo not drawn) [Compound 11, 3,5-Dimethoxy-4-(3-azido-3-(1,4-benzodioxan)propoxy)benzenesulfonamide] | absence of the binding affinity |

Same assay, conditions: human cloned α1a-AR expressed in HEK293 cells; mean ± S.E.M.

| Compound | pKi α1a-AR |
| --- | --- |
| COc1cc(S(N)(=O)=O)cc(OC)c1OCCC(N=[N+]=[N-])C1COc2ccccc2O1 (stereo not drawn) [Compound 11, 3,5-Dimethoxy-4-(3-azido-3-(1,4-benzodioxan)propoxy)benzenesulfonamide] | >4 |

These compounds were tested against hCA VB (Homo sapiens, UniProt Q9Y2D0) (assay: CA inhibition, stopped-flow CO2 hydration assay). Conditions: read-out: Ki CA VB; stopped-flow technique, mean from three assays.
Chain of hCA VB (Q9Y2D0 34-317): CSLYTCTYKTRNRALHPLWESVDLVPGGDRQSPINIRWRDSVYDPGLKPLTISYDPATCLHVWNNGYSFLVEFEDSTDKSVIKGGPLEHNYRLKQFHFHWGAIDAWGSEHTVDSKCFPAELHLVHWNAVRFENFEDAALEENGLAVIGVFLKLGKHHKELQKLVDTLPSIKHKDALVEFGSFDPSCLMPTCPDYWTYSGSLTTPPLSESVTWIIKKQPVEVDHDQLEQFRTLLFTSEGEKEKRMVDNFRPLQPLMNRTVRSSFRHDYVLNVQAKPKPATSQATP
Experimental: as §1, §2

| Compound | Ki [µM] |
| --- | --- |
| CN(C)S(=O)(=O)c1ccc(OCCNCC2COc3ccccc3O2)cc1 (stereo not drawn) [Compound 4, [((2-(4-Dimethylsulfonamidephenoxy)ethyl)amino)-methyl]-1,4-benzodioxane Hydrochloride] | > 10 |
| CS(=O)(=O)Nc1ccc(OCCNCC2COc3ccccc3O2)cc1 (stereo not drawn) [Compound 6, [((2-(4-Methylsulfonylamidephenoxy)ethyl)amino)-methyl]-1,4-benzodioxane Hydrochloride] | > 10 |
